Measured values published in US20250136617A1 (The Regents of the University of Colorado, A Body Corporate, priority 2022, published 2025).
Entries after “also recorded” stand apart in the source; their conditions may differ. Read-outs that look alike come from different tables or passages of the source.

Molecular target: CXCR4 (Homo sapiens, UniProt P61073)
Assay: β-arrestin recruitment, 384-well, Tango CXCR4-bla U2OS cells, normalized to SDF-1α
Type: cell-based
Parameters: host or cells: U2OS
Settings: for EC50: normalized to SDF-1α, read-out: ß-arrestin recruitment EC50
Outline: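 Tango CXCR4-bla U2OS cells plated in DMEM with 1% dialyzed FBS (FreeStyle 293 medium for thiadiazines), incubated overnight at 37 °C, then LiveBLAzer FRET B/G substrate added for 2 h in the dark. Fluorescence read; EC50 and Emax fitted with Hill slope 1.0, normalized to SDF-1α.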

Sequence of CXCR4 (P61073 whole entry): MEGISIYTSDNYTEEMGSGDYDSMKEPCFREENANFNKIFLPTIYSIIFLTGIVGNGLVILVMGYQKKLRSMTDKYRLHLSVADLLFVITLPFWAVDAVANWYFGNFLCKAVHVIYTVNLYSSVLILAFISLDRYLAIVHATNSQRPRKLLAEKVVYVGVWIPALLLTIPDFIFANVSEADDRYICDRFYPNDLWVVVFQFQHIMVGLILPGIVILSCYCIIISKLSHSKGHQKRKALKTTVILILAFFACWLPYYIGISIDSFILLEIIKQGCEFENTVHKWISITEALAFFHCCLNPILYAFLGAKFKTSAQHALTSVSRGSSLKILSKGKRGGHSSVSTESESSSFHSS

COc1ccc(OC)c(NS(=O)(=O)c2ccc(-c3cnc(C4CC4)o3)cc2)c1 [Oxazole Entry 19, 4-(2-Cyclopropyloxazol-5-yl)-N-(2,5-dimethoxyphenyl)benzenesulfonamide]
β-arrestin recruitment activity: dose-dependent partial activation of β-arrestin recruitment | Emax (U2OS, read-out: ß-arrestin recruitment Emax (%)): 30% | EC50: 500 nM

CCOc1ccccc1-c1nnc2n1N=C(c1ccc(N3CCCC3)cc1)CS2 [Thiadiazine Entry 23, 3-(2-ethoxyphenyl)-6-(4-(pyrrolidin-1-yl)phenyl)-7H-[1,2,4]triazolo[3,4-b][1,3,4]thiadiazine]
β-arrestin recruitment activity (listed as UCUF-965): dose-dependent partial activation of β-arrestin recruitment; also recorded: did not inhibit the action of SDF-1α | EC50: 20 nM
